Test results published in patent US12178825B2, “Method and compositions for forming a copper-containing complex and uses thereof” (COLD SPRING HARBOR LABORATORY, priority 2017, dated 2024).
“Also recorded” adds a separate entry of the source.

Columns and labels:
[1] = target: MEK1 (Homo sapiens, UniProt Q02750); assay: Cu-binding assay with kinase; conditions: read-out: Kd, copper binding to MEK1
[2] = test system: ATP7B-knockdown HepG2 cells; assay: Copper-induced toxicity, MTT cell survival; assay type: cell-based; conditions: copper concentrations greater than 0.5 mM
Procedure: HepG2 cells purchased from ATCC were cultured in RPMI media containing 10% FBS, 5% CO2 at 37 C. Control (AG09319) and Wilson's disease patient-derived fibroblasts (GM00032, GM00033, GM05257, GM12158, GM05798 and GM11778) were obtained from Coriell Biorepository and cultured in DMEM, 10% FBS, 5% CO2 at 37° C.
For cell survival assays, 10,000 cells were seeded in a 96 well plate and cultured until fully confluent (90%). To these cells, ATP7B siRNAs or scrambled siRNA (negative control) purchased from Qiagen and Santa Cruz Biotechnology were transfected. Lipofectamine RNAiMAX reagent (Thermofischer) and siRNAs were diluted into a final volume of 100 μl in Opti-MEM (Gibco). The mixture was incubated at room temperature for 30 min, following which 800 μl of Opti-MEM was added to the mixture. The above transfection solution was overlaid onto cells at a final concentration of 5 nM siRNA. Transfection of HepG2 cells with scrambled siRNA served as negative control. Twelve hours after the transfection, complete media was added to each well. Following which, knockdown efficiency was checked (24 hours later) and cells were exposed to varying concentration of copper (0-1 mM) for 12 h and cell viability was determined using the MTT assay as previously described (37). […]

[3] = target: T1, PAK1 (Homo sapiens, UniProt Q13153); assay: Kinase activity assay (ADP-Glow, MBP substrate); assay type: biochemical; conditions: in the presence of Cu(II)
Procedure: In brief, recombinant PAK1 (20 nM) or recombinant MEK1 (20 nM) were incubated for 30 min in 180 μl of kinase buffer in the presence or absence of CuSO4 (5 μM). The activity of the kinase was monitored using MBP as substrate by ADP-Glow assay (Promega) as per user's manual.

[4] = target: T1, PAK1; assay: Cu-binding assay with kinase; conditions: read-out: Kd, copper binding to PAK1
Procedure: Direct binding assays were performed using radiolabelled copper (64 Cu^2+). Varying concentration of radiolabeled copper (0-10 uM) was incubated with recombinant PAK1 (100 nM). Excess copper was removed by running the samples through a desalting column. The amount of metal bound to the protein was quantitated directly by scintillation counting.

[5] = test system: triple-negative breast cancer (TNBC) cell lines; assay: MTT cell survival, triple-negative breast cancer cell lines; assay type: cell-based
Procedure: (§1) The MTT assay was used to evaluate cell survival in the absence and presence of different compounds. The thiazolyl blue tetrazolium bromide (MTT) was dissolved in phosphate buffered saline (PBS) at a concentration of 5 mg/ml, filtered, and stored at 4° C. About 10,000 cells were seeded into a 96-well plate and cultured in growth medium containing serum. After 24 hours, cells were treated with the indicated concentrations of DPM-1001 or DPM-1003 (0-100 uM) for 2 hrs. Following which 20 μl MTT was added into each well. An ELISA plate reader (Biotek, Winooski, Vermont, USA) was used to measure the optical density at 490 nm.

[6] = test system: TX mice; assay: Tissue and fecal copper levels (ICP-MS, rhodanine staining); assay type: in vivo, mouse; conditions: TX mice, ICP-MS
Procedure: C3He-Atp7b^tx-j were obtained from the Jackson laboratory. All animal experiments were performed according to protocols approved by the Institutional Animal Use and Care Committee of Cold Spring Harbor laboratory. Mice were injected intraperitoneally (i.p.) with vehicle, or administered DPM-1001 intraperitoneally or orally at 5 mg/kg once every third day, for over a year. At the end of the study animals were euthanized and tissue samples were removed for biochemical studies.
Tissue samples from wild-type or TX mice treated with saline, DPM-1001 or tetrathiomolybdate was washed three times with PBS containing 1 mM EDTA (to remove nonspecifically bound copper). Then, 215 μl of concentrated nitric acid (BDH Aristar Ultra) was added to each sample and incubated overnight. Samples were boiled at 95° C. for 1 h. and approximately 150 μl of each sample was further diluted in 2 ml 2% nitric acid (made freshly from concentrated nitric acid and Milli-Q water) Samples were analyzed on a Thermo Fisher iCAP Qc ICP mass spectrometer in kinetic energy discrimination (KED) mode against a calibration curve of known copper and phosphorus concentrations, with Ga (20 μg/l, Inorganic Ventures) as an internal standard, Each experiment was carried out twice and each condition was repeated in at least triplicate.
Liver tissues from wild-type and TX mice from untreated and DPM-1001-treated mice were sectioned and stained with H&E or rhodanine. Whole-slide, digitized images of H&E-stained tissue were captured using the Aperio ScanScope XT automated scanning system (Vista, CA). Image J software was used to quantitate rhodanine staining.

[7] = test system: MDA-MB-231 cells; assay: MDA-MB-231 orthotopic xenograft; assay type: in vivo, SCID-beige mice; conditions: mice with TNBC xenograft, 5 mg/kg intraperitoneally every day
Procedure: MDA-MB-231 cells (2×10^6) were injected orthotopically into mammary fat pads of SCID-beige mice (Tectonic lab) in 15 μl of a 1:1 mixture with DMEM and growth factor-reduced Matrigel (BD Biosciences). The animals were randomly assigned to three groups to receive saline (control), DPM-1001 (5 mg/kg) or DPM-1003 (5 mg/kg) intraperitoneally everyday once the tumors reached about 200 mm^3. Tumor growth was monitored every third day and volume in mm^3 was measured three times weekly by palpation using the formula: volume=width^2×length/2. Once the tumor volume reached above 500 mm^3 in saline treated mice, the study was terminated. Tumors from all mice were removed for biochemical analysis.

[8] = test system: TNBC cells; assay: Cellular copper levels by ICP-MS; assay type: cell-based
Procedure: TNBC cells (1×10^6) were plated in a 10-cm culture dish in growth medium. About 24 h after seeding cells, they were untreated or treated with DPM-1001 (2 uM) or DPM-1003 (2 uM) for 2 h. Following which, cells were washed three times with PBS. Then, 215 μl of concentrated nitric acid (BDH Aristar Ultra) was added to each sample and incubated overnight. Samples were boiled at 95° C. for 1 h. and approximately 150 μl of each sample was further diluted in 2 ml 2% nitric acid (made freshly from concentrated nitric acid and Milli-Q water). Samples were analyzed on a Thermo Fisher iCAP Qc ICP mass spectrometer in kinetic energy discrimination (KED) mode against a calibration curve of known copper and phosphorus concentrations, with Ga (20 μg/l, Inorganic Ventures) as an internal standard. Each experiment was carried out twice and each condition was repeated in at least triplicate.

[9] = target: PTP1B (Homo sapiens, UniProt P18031); assay: PTP1B inhibition (Ki); assay type: biochemical
[10] = ESI-MS analysis of complex formation with a series of other metal ions; assay type: binding; conditions: panel of metals
Procedure: Eight equivalents of M(NO3)2·xH2O or MSO4·xH2O were reacted with 1 eq. of DPM-1001, DPM-1003 or analog 2 (1 mM in H2O). The reaction solutions were stirred at RT, 40° C. and 80° C. for 2 h. Each sample was diluted 5-fold in 50% methanol, 0.1% formic acid and loaded into a 500 μL syringe. A Thermo Vantage triple quadrupole mass spectrometer (Thermo Scientific), equipped with an HESI spray source was coupled to an Accela HPLC system (Thermo Scientific). Mobile phase A consisted of 0.1% formic acid and mobile phase B consisted of 0.1% formic acid in methanol. Isocratic flow was set to 50% B at 200 μL/min. 200 μl samples were injected into the LC flow line via syringe pump at 10 μL/min and electrosprayed into the Vantage triple quadrupole mass spectrometer. A spray voltage of 4.3 kV was used along with a capillary temperature of 350° C. Each full MS scan was 0.5 s and data were collected with a scan range of 200 m/z to 900 m/z over 1 min.

[11] = test system: non-TNBC cell lines; assay: MTT cell survival, non-TNBC cell lines; assay type: cell-based
Procedure: as §1

[12] = Direct copper-binding assay with radiolabelled copper
Procedure: Direct binding assays were performed using radiolabelled copper (64 Cu^2+). Varying concentration of radiolabeled copper (0-100 nM) was incubated with DPM-1001 (100 nM). Excess copper was removed by running the samples through a desalting column. The amount of metal bound to the compound was quantitated directly by scintillation counting. For assays with the protein, His-tagged PTP1B (100 nM) was incubated with varying concentrations of Cu-DPM-1001 complex for 60 min in assay buffer (50 mM Hepes, 100 mM NaCl, 0.1% BSA pH 6.5) at 25° C. Protein-bound and free compound were separated by incubating the protein-inhibitor mixture with 50 μl of 50% Ni-NTA beads for 10 min at 25° C. The beads were washed with assay buffer containing 150 mM NaCl and 25 mM Imidazole three times, and the inhibitor bound to protein was determined by scintillation counting. The amount of bead-bound protein was estimated by BCA protein quantification.
Direct binding assays were performed using radiolabelled copper (64 Cu^2+). […] The amount of metal bound to the compound was quantitated directly by scintillation counting. […] The inhibitor bound to protein was determined by scintillation counting. The amount of bead-bound protein was estimated by BCA protein quantification. For protein quantitation the bead bound protein was precipitated with TCA (25% final) on ice for 30 minutes. […]

T1 sequence (Q13153 whole entry): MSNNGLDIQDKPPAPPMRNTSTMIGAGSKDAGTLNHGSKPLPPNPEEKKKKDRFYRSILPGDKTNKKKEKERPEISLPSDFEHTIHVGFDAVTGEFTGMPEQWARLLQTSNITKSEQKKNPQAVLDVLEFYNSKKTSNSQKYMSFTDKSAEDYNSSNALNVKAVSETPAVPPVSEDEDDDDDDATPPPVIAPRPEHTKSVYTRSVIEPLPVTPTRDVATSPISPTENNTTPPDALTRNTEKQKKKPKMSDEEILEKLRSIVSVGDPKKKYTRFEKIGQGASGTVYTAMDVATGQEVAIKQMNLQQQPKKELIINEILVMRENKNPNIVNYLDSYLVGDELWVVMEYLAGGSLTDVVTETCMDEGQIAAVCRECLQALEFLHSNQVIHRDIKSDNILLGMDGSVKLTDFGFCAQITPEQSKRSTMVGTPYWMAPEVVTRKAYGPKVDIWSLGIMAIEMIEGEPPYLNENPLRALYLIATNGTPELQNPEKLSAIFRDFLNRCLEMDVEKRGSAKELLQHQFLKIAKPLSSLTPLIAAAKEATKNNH
MEK1, sequence (Q02750 whole entry): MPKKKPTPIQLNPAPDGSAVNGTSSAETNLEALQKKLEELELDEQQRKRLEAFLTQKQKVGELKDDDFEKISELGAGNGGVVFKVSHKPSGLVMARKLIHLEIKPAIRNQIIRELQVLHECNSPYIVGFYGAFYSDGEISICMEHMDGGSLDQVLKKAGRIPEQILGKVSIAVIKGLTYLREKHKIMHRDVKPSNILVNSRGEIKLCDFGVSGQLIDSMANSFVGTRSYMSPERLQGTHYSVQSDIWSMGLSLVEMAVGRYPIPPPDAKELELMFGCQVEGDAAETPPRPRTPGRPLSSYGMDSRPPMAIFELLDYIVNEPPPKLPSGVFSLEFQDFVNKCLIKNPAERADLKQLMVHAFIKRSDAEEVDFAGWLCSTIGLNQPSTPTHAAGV
PTP1B, sequence (P18031 whole entry, species assumed): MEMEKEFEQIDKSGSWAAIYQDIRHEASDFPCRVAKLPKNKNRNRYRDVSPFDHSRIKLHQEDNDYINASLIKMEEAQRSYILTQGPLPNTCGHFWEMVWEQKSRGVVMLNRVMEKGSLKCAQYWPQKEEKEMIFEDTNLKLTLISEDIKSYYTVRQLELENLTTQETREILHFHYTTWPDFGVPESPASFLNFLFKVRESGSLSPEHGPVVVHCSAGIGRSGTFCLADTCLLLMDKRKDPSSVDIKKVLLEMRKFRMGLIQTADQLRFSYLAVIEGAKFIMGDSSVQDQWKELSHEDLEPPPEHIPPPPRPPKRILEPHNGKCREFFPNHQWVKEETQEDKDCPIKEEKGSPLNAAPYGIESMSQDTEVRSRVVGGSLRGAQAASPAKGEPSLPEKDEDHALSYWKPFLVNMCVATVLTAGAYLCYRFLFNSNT

SMILES	Kd [1] [nM]	survival of ATP7B-KD1 [2]	Vmax of PAK1 kinase activity [3]	Kd [4] [nM]	survival of triple-negative breast cancer cells [5]	copper levels in liver and brain [6]	tumor volume / tumor size [7]	cellular copper levels [8]	Ki [9] [nM]	complex formation with other metals [10]	survival of non-TNBC cell lines, DPM-1001 versus DPM-1003 [11]	binding to copper (in words) [12]
[Cu+2] [copper]	5	less than 20%	834.4	15								
COC(=O)CCC(C)C1CCC2C3C(O)CC4CC(NCCCCNCc5cccnc5)CCC4(C)C3CCC12C (stereo not drawn) [DPM-1003]					did not affect survival; also recorded: does not inhibit the survival	did not affect levels of copper in liver tissue; also recorded: did not suppress the levels of the metal in liver	without effect; also recorded: not by DPM-1003; also recorded: did not reduce tumor size or inhibit tumor growth	does not reduce copper levels	2000	limited binding	did not differ from each other	does not bind copper with high affinity; also recorded: limited binding; also recorded: does not bind with high affinity to or form a complex with copper
